US11472803B2, “7-substituted 1-aryl-naphthyridine-3-carboxylic acid amides and use thereof” (Bayer Aktiengesellschaft, priority 2016, dated 2022)

Tests used:
human M2 receptor [1] = biological target: T1, human M2 receptor (Homo sapiens, UniProt P08172); assay: Functional M2-GIRK1/4 activation test: allosteric potency (EC50) and efficiency at EC20 acetylcholine; type: cell-based; settings: CHO-DUKX-M2-GIRK cells; for EC50: voltage-sensitive dye, acetylcholine at EC20, in some cases mean of two or more determinations; for Emax / Efficiency: boosting of the acetylcholine effect at EC20 acetylcholine concentration
T1 construct: expressed in transfected cells; host or cells: CHO-DUKX (CHO-DUKX-M2-GIRK)
T1 sequence (P08172 1-466): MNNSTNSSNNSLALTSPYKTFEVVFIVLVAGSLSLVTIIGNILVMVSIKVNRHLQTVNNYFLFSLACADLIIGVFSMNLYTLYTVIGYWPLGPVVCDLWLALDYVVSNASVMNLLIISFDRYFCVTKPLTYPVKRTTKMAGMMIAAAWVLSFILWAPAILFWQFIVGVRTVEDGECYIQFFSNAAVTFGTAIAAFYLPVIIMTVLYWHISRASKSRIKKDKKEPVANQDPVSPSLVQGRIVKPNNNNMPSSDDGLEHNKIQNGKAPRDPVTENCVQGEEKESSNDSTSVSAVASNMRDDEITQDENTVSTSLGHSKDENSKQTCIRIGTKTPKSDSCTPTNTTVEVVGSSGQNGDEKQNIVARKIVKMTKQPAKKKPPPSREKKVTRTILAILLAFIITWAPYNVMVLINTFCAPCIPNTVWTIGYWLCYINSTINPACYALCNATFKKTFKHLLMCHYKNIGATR
Procedure, shortened: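 CHO-DUKX cells stably expressing human M2 and GIRK1/4; membrane potential tracked with voltage-sensitive dye at room temperature. Compound added 50 s before acetylcholine at its EC20, then hyperpolarization read 60 s. EC50 (allosteric potency) and efficiency (boost of EC20 ACh effect) from 4-parameter Hill fit.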

human M2 receptor [2] = biological target: T1, human M2 receptor; assay: Functional M2-GIRK1/4 activation test: positive cooperativity (α factor), shift of acetylcholine dose-response curve; type: cell-based; settings: Allosteric EC50 shift of acetylcholine 8-point dose-response curve; CHO-DUKX-M2-GIRK cells; α>1 = positive cooperativity
Text: The binding of orthosteric agonists (endogenous ligand: acetylcholine) to the M2 receptor leads to receptor activation or a change in conformation of the receptor in the manner of a shift in equilibrium in favour of the active receptor conformation.
The agonist-induced change in conformation of the M2 receptor results in a Gαi protein activation. […] Under physiological conditions, the result is then a selective efflux of potassium from the cell along the electrochemical gradient. […] The extent of hyperpolarization can therefore be regarded as a measure of the activation of the M2 receptor.
The test cell used is a recombinant CHO-DUKX cell line which has been stably transfected with cDNA coding for the human M2 receptor and with cDNA coding for both GIRK1/4 subunits (CHO-DUKX-M2-GIRK). The transmembrane potential, or the relative changes in the transmembrane potential as a function of substance addition or M2 activation, is determined by means of a voltage-sensitive dye (FLIPR Membrane Potential Assay Kit Blue, Molecular Devices #R8034) and the measurement of cell fluorescence using a proprietary fluorescence imaging instrument.
In accordance with the desired test concentrations, the substances were pre-diluted in loading buffer (see above).
The sowing medium consisted of MEM alpha medium (supplemented with 5% PCS, 2% Glutamax, no genticin).
For the particular measurement, the medium was removed and the cells were laden with the volt-age-sensitive dye for at least 6 min at room temperature (30 μl of loading buffer per 384-well). This was followed, in a first measurement, by the determination of the resting transmembrane potential for a period of 5 sec in 1 sec increments. Thereafter, 10 μl in each case of the test substances diluted in loading buffer are added, followed by a second measurement to determine the transmembrane potential for a period of 50 sec in 1 sec increments.
Finally, the cells are admixed with 10 μl of agonist solution (acetylcholine dissolved in loading buffer). In contrast to the EC50 determination of the test substances (see B-1.1), however, this is not done using one acetylcholine concentration; instead, every concentration of the test substance is combined with an acetylcholine 8-point dose-response curve. […] The M2-mediated GIRK1/4 activation or hyperpolarization is then monitored in a third measurement over a period of 60 sec in 1 sec increments. The shift in the acetylcholine dose-response curve in the presence of increasing concentrations of the test substance is analysed and quantified by means of GraphPad PRISM (Allosteric EC50 shift). […] Positive cooperativity is the hallmark of a positive allosteric modulator. […] The greater the magnitude of the α value, the greater the extent of cooperativity between orthosteric and allosteric.

| Compound | EC50 (human M2 receptor [1]) [nM] | Emax (human M2 receptor [1]) [%] | Cooperativity (alpha factor) (human M2 receptor [2]) | Efficiency (human M2 receptor [1]) [%] |
| --- | --- | --- | --- | --- |
| CC(C)(CC(F)(F)F)NC(=O)c1cn(-c2c(F)cc(F)cc2F)c2nc(N3C[C@@H](O)[C@H](O)C3)c(F)cc2c1=O [Example 13, 7-[(3R,4R)-3,4-dihydroxypyrrolidin-1-yl]-6-fluoro-4-oxo-N-(4,4,4-trifluoro-2-methylbutan-2-yl)-1-(2,4,6-trifluorophenyl)-1,4-dihydro-1,8-naphthyridine-3-carboxamide] | 6.2 | 94 | 49 | – |
| O=C(N[C@@H](C1CC1)C(F)(F)F)c1cn(-c2c(F)cc(F)cc2F)c2nc(N3C[C@@H](O)[C@H](O)C3)c(F)cc2c1=O [Example 7, N-[(1S)-1-Cyclopropyl-2,2,2-trifluoroethyl]-7-[(3R,4R)-3,4-dihydroxypyrrolidin-1-yl]-6-fluoro-4-oxo-1-(2,4,6-trifluorophenyl)-1,4-dihydro-1,8-naphthyridine-3-carboxamide] | 5.64 | 93 | 57 | – |
| CC(C)C[C@H](NC(=O)c1cn(-c2c(F)cc(F)cc2F)c2nc(N3CC(O)[C@H](O)C3)c(F)cc2c1=O)C(F)(F)F (stereo in doubt) [Example 11, 7-[(3R,4S)-3,4-dihydroxypyrrolidin-1-yl]-6-fluoro-4-oxo-N-[(2S)-1,1,1-trifluoro-4-methylpentan-2-yl]-1-(2,4,6-trifluorophenyl)-1,4-dihydro-1,8-naphthyridine-3-carboxamide] | 5.8 | 100 | 60 | – |
| CC(C)(NC(=O)c1cn(-c2c(F)cc(F)cc2F)c2nc(N3C[C@@H](O)[C@H](O)C3)c(F)cc2c1=O)C(F)F [Example 22, N-(1,1-difluoro-2-methylpropan-2-yl)-7-[(3R,4R)-3,4-dihydroxypyrrolidin-1-yl]-6-fluoro-4-oxo-1-(2,4,6-trifluorophenyl)-1,4-dihydro-1,8-naphthyridine-3-carboxamide] | 10 | 95 | 42 | – |
| CC(C)(NC(=O)c1cn(-c2c(F)cc(F)cc2F)c2nc(N3C[C@@H](O)[C@H](O)C3)c(F)cc2c1=O)C1CC1 [Example 25, N-(2-cyclopropylpropan-2-yl)-7-[(3R,4R)-3,4-dihydroxypyrrolidin-1-yl]-6-fluoro-4-oxo-1-(2,4,6-trifluorophenyl)-1,4-dihydro-1,8-naphthyridine-3-carboxamide] | 4.05 | 95 | 45 | – |
| CC(C)(CC(F)(F)F)NC(=O)c1cn(-c2c(F)cccc2F)c2nc(N3C[C@@H](O)[C@H](O)C3)c(F)cc2c1=O [Example 1, 1-(2,6-Difluorophenyl)-7-[(3R,4R)-3,4-dihydroxypyrrolidin-1-yl]-6-fluoro-4-oxo-N-(4,4,4-tri-fluoro-2-methylbutan-2-yl)-1,4-dihydro-1,8-naphthyridine-3-carboxamide] | 21 | 92 | 35 | – |
| O=C(NC(C(F)(F)F)C(F)(F)F)c1cn(-c2c(F)cc(F)cc2F)c2nc(N3CC(CO)(CO)C3)c(F)cc2c1=O [Example 230, 7-[3,3-bis(hydroxymethyl)azetidin-1-yl]-6-fluoro-N-(1,1,1,3,3,3-hexafluoropropan-2-yl)-4-oxo-1-(2,4,6-trifluorophenyl)-1,4-dihydro-1,8-naphthyridine-3-carboxamide] | 9.7 | 97 | 36 | – |
| O=C(NC(C1CC1)(C1CC1)C(F)(F)F)c1cn(-c2c(F)cc(F)cc2F)c2nc(N3C[C@@H](O)[C@H](O)C3)c(F)cc2c1=O [Example 203, N-(1,1-dicyclopropyl-2,2,2-trifluoroethyl)-7-[(3R,4R)-3,4-dihydroxypyrrolidin-1-yl]-6-fluoro-4-oxo-1-(2,4,6-trifluorophenyl)-1,4-dihydro-1,8-naphthyridine-3-carboxamide] | 5 | 100 | 29 | – |
| CCC(COC(F)(F)F)NC(=O)c1cn(-c2c(F)cc(F)cc2F)c2nc(N3C[C@@H](O)[C@H](O)C3)c(F)cc2c1=O (single isomer, unassigned) [Example 31] | 4.15 | 100 | 37 | – |
| CC(NC(=O)c1cn(-c2c(F)cc(F)cc2F)c2nc(N3CCC[C@@H]3CO)c(F)cc2c1=O)C(F)(F)C(F)(F)F (single isomer, unassigned) [Example 184] | 4.5 | 90 | 24 | – |
| CC(NC(=O)c1cn(-c2c(F)cc(F)cc2F)c2nc(N3C[C@@H](O)[C@H](O)C3)c(F)cc2c1=O)C(F)(F)C(F)(F)F (single isomer, unassigned) [Example 9] | – | 91 | 39 | – |
| CC(NC(=O)c1cn(-c2c(F)cc(F)cc2F)c2nc(N3C[C@@H](O)[C@@H](O)C3)c(F)cc2c1=O)C(F)(F)C(F)(F)F (single isomer, unassigned) [Example 94] | – | 100 | 34 | – |
| O=C(NC(C(F)(F)F)C(F)(F)F)c1cn(-c2ncc(F)cc2F)c2nc(N3C[C@@H](O)[C@H](O)C3)c(F)cc2c1=O [Example 145, 1-(3,5-Difluoropyridin-2-yl)-7-[(3R,4R)-3,4-dihydroxypyrrolidin-1-yl]-6-fluoro-N-(1,1,1,3,3,3-hexafluoropropan-2-yl)-4-oxo-1,4-dihydro-1,8-naphthyridine-3-carboxamide] | 11.2 | 100 | 86 | – |
| CC(NC(=O)c1cn(-c2c(F)cc(F)cc2F)c2nc(N3CCC(O)(CO)CC3)c(F)cc2c1=O)C(F)(F)C(F)(F)F (single isomer, unassigned) [Example 186, 6-Fluoro-7-[4-hydroxy-4-(hydroxymethyl)piperidin-1-yl]-4-oxo-N-[3,3,4,4,4-pentafluorobutan-2-yl]-1-(2,4,6-trifluorophenyl)-1,4-dihydro-1,8-naphthyridine-3-carboxamide] | 5.8 | 87 | 20 | – |
| CC[C@@H](NC(=O)c1cn(-c2c(F)cc(F)cc2F)c2nc(N3C[C@@H](O)[C@H](O)C3)c(F)cc2c1=O)C(F)(F)F [Example 36, 7-[(3R,4R)-3,4-dihydroxypyrrolidin-1-yl]-6-fluoro-4-oxo-N-[(2R)-1,1,1-trifluorobutan-2-yl]-1-(2,4,6-trifluorophenyl)-1,4-dihydro-1,8-naphthyridine-3-carboxamide] | 5 | 92 | 51 | – |
| CCC(NC(=O)c1cn(-c2c(F)cc(F)cc2F)c2nc(N3CC(CO)(CO)C3)c(F)cc2c1=O)C(F)(F)C(F)(F)F (racemic) [Example 173, 7-[3,3-Bis(hydroxymethyl)azetidin-1-yl]-6-fluoro-4-oxo-N-[1,1,1,2,2-pentafluoropentan-3-yl]-1-(2,4,6-trifluorophenyl)-1,4-dihydro-1,8-naphthyridine-3-carboxamide] | 2.5 | – | 39 | 99 |
| CC(C)(NC(=O)c1cn(-c2c(F)cc(F)cc2Cl)c2nc(N3C[C@@H](O)[C@H](O)C3)c(F)cc2c1=O)C(F)F (single isomer, unassigned) [Example 143] | 1.5 | – | 40 | 94 |
